Test results: patent US20110152267A1, “Compositions and Methods for Treating Hyperproliferative Disorders” (Texas Tech University System, priority 2009, published 2011)

Assays:
Assay type in all cases: cell-based, human
[1] = test system: PANC-1 pancreatic adenocarcinoma cell line; assay: DIMSCAN cytotoxicity, fenretinide + L-threo-sphinganines 3:1 (Example B18)
Outline: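 PANC-1 cells plated overnight, then exposed 96 h at 37 °C, 5% CO2 to fenretinide and L-threo-sphinganines alone or at 3:1 fenretinide:sphinganine, 12 wells per concentration. Viable cells read by DIMSCAN (fluorescein diacetate 8 microgram/mL final, eosin Y quench) as survival fraction versus vehicle controls; synergy scored by Chou-Talalay combination index.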

[2] = test system: SJ-GBM2 Glioblastoma multiforme cell line; assay: DIMSCAN cytotoxicity, fenretinide + L-threo-sphinganines 3:1 (Example B7); parameters: key to CI (Combination Index): Chou-Talalay CI: <0.9 synergy, 0.9-1.1 additive, >1.1 antagonism; details: 96 h
Outline: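 SJ-GBM2 cells exposed 96 h at 37 °C to fenretinide and L-threo-sphinganines, alone or 3:1 fenretinide:sphinganine, 12 wells per concentration. Viable cells stained with fluorescein diacetate (8 μg/mL final) with eosin Y quench, read by digital imaging; survival fraction vs vehicle, combination index by Chou-Talalay.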

[3] = test system: OE-33 esophageal adenocarcinoma cell line; assay: DIMSCAN cytotoxicity, fenretinide + L-threo-sphinganines 3:1 (Example B19)
Description: (§1) Cytotoxicity Assay—Once again, cytotoxicity is determined using the DIMSCAN assay system (R. Proffitt et al., Cytometry 24, 204-213 (1996); T. Frgala et al., Mol Cancer Ther. 6:886-97, 2007). The system employs digital imaging microscopy to quantify viable cells, which selectively accumulate fluorescein diacetate to become brightly fluorescent. The system is capable of measuring cytotoxicity over a 4-5 log dynamic range by quenching the residual fluorescence of dead and dying cells with eosin Y and quantifying the total fluorescence of viable cells using digital thresholding. Measured fluorescence is directly proportionate to the number of viable cells. A comparison of the total fluorescence of a drug-treated cell population to the fluorescence of a similar number of untreated cells yields a survival fraction. In brief, 2000 to 10,000 cells/well (depending on size and growth rates) are replicate plated into 60 wells of a 96-well tissue culture plate in 0.1 mL of whole medium and allowed to attach overnight. Drug(s) are then added in 0.05 mL of whole medium to the final concentrations indicated. Drugs (fenretinide, and various chain length L-threo-sphinganines) were tested both as single agents and in a 3:1 ratio of fenretinide:sphinganine. C18-L-threo-sphinganine, or “safingol,” was also tested and results shown for reference. There are 12 wells treated per drug concentration. Twelve wells receive drug vehicle-only to the appropriate final concentration and serve as controls for the plate. Cells are incubated for 96 hours at 37° C. in ambient air with 5% CO2. Fluorescein diacetate is then added to each well in 0.05 mL media to a final concentration of 8 microgram/mL. Cells are incubated for a further 15 minutes at 37° C. and 0.03 mL of 0.5% eosin Y is added to each well. Total fluorescence of viable cells is then measured by digital imaging microscopy. Results were graphed as the ratio of the fluoresecence of drug-treated wells to non-drug treated control wells (i.e., Survival Fraction). All tests were performed at least twice. Representative results are shown.
(§2) The Combination Index (CI) is a term to describe mathematical modeling of the pharmacologic effects on cytotoxicity (cell death) of two drugs in combination based. Cytotoxic “synergy” is defined as a cell death affect which is greater than would be expected from a simple product of the single agent cytotoxicities alone (i.e. an “additive” effect). By Chou-Talalay analysis, a CI<0.9 on a Fraction Affected (“Fa”, i.e. fraction of cells killed) indicates synergy, with smaller numbers indicating greater synergy; a CI of 0.9-1.1 signifies an additive or near-additive effect; and a CI>1.1 means the drug combination is antagonistic.
(§3) Fenretinide and L-threo-sphinganines tested in human esophageal adenocarcinoma (esophagus cancer) cell lines, OE-19 and OE-33.

[4] = test system: OE-19 esophageal adenocarcinoma cell line; assay: as above
Description: as §1, §2, §3

[5] = test system: CHLA-90 pediatric neuroblastoma cell line; assay: DIMSCAN cytotoxicity, fenretinide + L-threo-sphinganines 3:1 (Example B21)
Description: as §1, §2
Fenretinide and L-threo-sphinganines tested in human pediatric neuroblastoma (a nerve-related, solid tumor cancer) cell line, CHLA-90.

[6] = test system: A-172 Glioblastoma multiforme cell line; assay: DIMSCAN cytotoxicity, fenretinide + L-threo-sphinganines 3:1 (Example B4); parameters: key to CI (Combination Index): Chou-Talalay CI: <0.9 synergy, 0.9-1.1 additive, >1.1 antagonism; details: 96 h
Outline: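 A-172 cells attached overnight, then exposed 96 h at 37 °C/5% CO2 to fenretinide and L-threo-sphinganines alone or at 3:1 fenretinide:sphinganine, 12 wells per concentration. Viable cells quantified by DIMSCAN (fluorescein diacetate 8 microgram/mL final, eosin Y quench); survival fraction vs vehicle controls; synergy by Chou-Talalay combination index.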

[7] = test system: OVCAR-8 ovarian adenocarcinoma cell line; assay: DIMSCAN cytotoxicity, fenretinide + L-threo-sphinganines 3:1 (Example B15); parameters: key to CI (Combination Index): Chou-Talalay CI: <0.9 synergy, 0.9-1.1 additive, >1.1 antagonism; details: 96 h
Outline: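 OVCAR-8 cells (2000–10,000/well) attached overnight, then treated with fenretinide and L-threo-sphinganines singly or at 3:1 fenretinide:sphinganine for 96 h at 37°C. Viable cells measured by fluorescein diacetate uptake with eosin Y quench (DIMSCAN); survival fraction versus vehicle, synergy by Chou-Talalay combination index.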

[8] = test system: U-266 Multiple Myeloma cell line; assay: DIMSCAN cytotoxicity, fenretinide + L-threo-sphinganines 3:1 (Example B3); details: 96 h
Outline: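 Cells plated at 2000–10,000/well, attached overnight, then exposed 96 h at 37 °C to fenretinide and L-threo-sphinganines alone or at 3:1 fenretinide:sphinganine. Viable cells read by DIMSCAN (fluorescein diacetate 8 microgram/mL, eosin Y quench) as survival fraction versus vehicle; synergy scored by Chou-Talalay combination index.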

[9] = 4-HPR 1.5 μM + L-threo-sphinganine 0.5 μM
[10] = 4-HPR 3 μM + L-threo-sphinganine 1 μM
[11] = 4-HPR 6 μM + L-threo-sphinganine 2 μM
[12] = 4-HPR 9 μM + L-threo-sphinganine 3 μM

SMILES: CCCCCCCCCCCCCCCC[C@H](O)[C@@H](N)CO [C19, (2S,3S)-2-amino-1,3-nonadecanediol]
- CI [1, 9]: 1.5
- Fa [1, 9]: 0.182
- CI [1, 10]: 1.8
- Fa [1, 10]: 0.321
- CI [1, 11]: 1.4
- Fa [1, 11]: 0.663
- CI [1, 12]: 0.1
- Fa [1, 12]: 0.997
- CI (Combination Index) [2, 9]: >>1
- Fa (fraction affected) [2, 9]: 0.001
- CI (Combination Index) [2, 10]: 0.4
- Fa (fraction affected) [2, 10]: 0.672
- CI (Combination Index) [2, 11]: 0.7
- Fa (fraction affected) [2, 11]: 0.925
- CI (Combination Index) [2, 12]: 0.8
- Fa (fraction affected) [2, 12]: 0.997
- CI [3, 9]: 1.9
- Fa [3, 9]: 0.299
- CI [3, 10]: 1.6
- Fa [3, 10]: 0.582
- CI [3, 11]: 0.6
- Fa [3, 11]: 0.951
- CI [3, 12]: 0.3
- Fa [3, 12]: 0.989
- CI [4, 9]: 1.0
- Fa [4, 9]: 0.094
- CI [4, 10]: 1.6
- Fa [4, 10]: 0.109
- CI [4, 11]: 1.6
- Fa [4, 11]: 0.173
- CI [4, 12]: 1.1
- Fa [4, 12]: 0.272
- CI [5, 10]: 0.4
- Fa [5, 10]: 0.9960
- CI [5, 11]: 0.1
- Fa [5, 11]: 0.9993
- CI [5, 12]: 0.1
- Fa [5, 12]: 1
- Fa ([5]; 4-HPR 12 μM + L-threo-sphinganine 4 μM): 1.0000
- CI (Combination Index) [6, 9]: 84.4
- Fa (fraction affected) [6, 9]: 0.086
- CI (Combination Index) [6, 10]: 8.1
- Fa (fraction affected) [6, 10]: 0.578
- CI (Combination Index) [6, 11]: >0.1
- Fa (fraction affected) [6, 11]: 0.998
- CI (Combination Index) [6, 12]: >0.1
- Fa (fraction affected) [6, 12]: 1.000
- CI (Combination Index) [7, 9]: 0.1
- Fa (fraction affected) [7, 9]: 0.787
- CI (Combination Index) [7, 10]: 0.1
- Fa (fraction affected) [7, 10]: 0.881
- CI (Combination Index) [7, 11]: 0.1
- Fa (fraction affected) [7, 11]: 0.943
- CI (Combination Index) [7, 12]: 0.1
- Fa (fraction affected) [7, 12]: 0.978
- CI (Combination Index) [8, 9]: 1.0
- Fa (fraction affected) [8, 9]: 0.19
- CI (Combination Index) [8, 10]: 1.4
- Fa (fraction affected) [8, 10]: 0.414
- CI (Combination Index) [8, 11]: 0.9
- Fa (fraction affected) [8, 11]: 0.933
- CI (Combination Index) [8, 12]: 0.3
- Fa (fraction affected) [8, 12]: 0.999
